Where “and” joins values, the source holds several entries; their conditions need not be identical. Equal values may be shown once. Where a name gives a salt, the structure may show the parent alone.
Experiments:
[1] = lysozyme powder from Sigma-Aldrich; cited from earlier work
[2] = Lysozyme activity after extrusion, liquid-liquid extraction and Lysozyme activity Kit; format: biochemical
Procedure: The lysozyme was extracted from the drug delivery composition by liquid-liquid extraction. 50 mg of drug delivery composition were solubilized in 2.5 mL of Dichloromethane. Then 7.5 mL of cold 66 mM potassium phosphate buffer pH6.24 was added. The mix was vigorously vortex. Samples were maintained in ice between each step. After phase separation, aqueous phase was taken off and lysozyme activity was measured using Lysozyme activity Kit (from Sigma-Aldrich).
The lysozyme was extracted from the drug delivery composition by liquid-liquid extraction as described in Example 4 and lysozyme activity was titrated with lysozyme activity kit (from Sigma-Aldrich).

[3] = Drug integrity after extrusion and release, HPLC peaks compared with non-extruded drug
Procedure: An Ultimate 3000 HPLC system (Thermofisher Scientific) equipped with Diode Array Detector (DAD-3000(RS)) and a Phenomenex Kinetex EVO C18, LC Column 100×2.1 mm, 2.6 μm with a pore size of 100 Å. The column was controlled to a temperature of 30° C. The mobile phase was a gradient of Ammonium Bicarbonate 20 mM pH9/Acetonitrile (95/5% to 35/65 in 5 min) with a flow rate of 0.75 mL/min. Naltrexone hydrochloride powder was accurately weighed and dissolved in water to give 450 μg/mL solution. Subsequent dilutions were made with water to get concentrations of 7-450 μg/mL. The standard solutions prepared as above were injected in the same conditions of samples. The peak areas of the naltrexone concentration were calculated. The regression of the naltrexone concentration over the peak areas was obtained and used to estimate the amount of naltrexone released from the polymer.

| Compound | denaturation temperature [1] | lysozyme activity after two extrusions (in words) ([2]; Example 4 composition (PLA, PCL masterbatch, Savinase®), extrusions at 78° C. and 165° C., results not shown) | lysozyme activity retained after extrusion ([2]; Example 5.2 composition, 50% PCL and 50% lysozyme, extruded at 78° C.) | degradation of the released drug by the PLA-degrading enzyme ([3]; drug delivery composition with Savinase®) | degradation of naltrexone through the extrusion process ([3]; extruded in PLA at 168° C.) |
| --- | --- | --- | --- | --- | --- |
| lysozyme: lysozyme powder from Sigma-Aldrich, 14.7 kDa protein used as model drug | 76 °C and 74 °C | still exhibits activity | 95% | – | – |
| O=C1CC[C@@]2(O)[C@H]3Cc4ccc(O)c5c4[C@@]2(CCN3CC2CC2)[C@H]1O5 [naltrexone, naltrexone hydrochloride] | – | – | – | without any degradation | not degraded |

Reference: US20200206354A1, “DRUG DELIVERY COMPOSITION” (PK MED SAS, priority 2017, published 2020)
